This note sets out measurements from patent US6110967A, “Epoxysuccinamide derivative or salt thereof” (Taiho Pharmaceuticals Co., Ltd., priority 1997, dated 2000).

One test deals with T1, Cathepsin L (Rattus norvegicus, UniProt P07154).
T1 construct: extracted from a rat liver and completely purified; from tissue; host or cells: rat liver
Put plainly: Determination of inhibition activity against cathepsin L (substrate Z-Phe-Arg-MCA). The class given is biochemical. The settings on record: cathepsin L purified from rat liver, pH 5.5, 30° C., 10 minutes. As for the experimental part: (§1) Determination of inhibition activity against cathepsin L and cathepsin B:
Cathepsin L that extracted from a rat liver and completely purified in accordance with the method described in J. Biochem., 84, 650-671 (1978) was used, and as a substrate thereof, Z-Phe-Arg-MCA was used.
(§2) Each cathepsin was diluted with a diluent (0.1% Brij 35) to adjust its concentration to 0.3 U (0.1 U: a concentration at which 1.0 nmol of MCA is released per minute at 37° C.). An activator/buffer (340 mM sodium acetate, 60 mM acetic acid, 4 mM disodium EDTA; pH 5.5; 250 μl) was added to the solution (500 μl). After the mixture was incubated for 1 minute at 30° C., a specimen solution of the predetermined concentration and a substrate solution ([…]) were added to conduct a reaction for 10 minutes. The reaction was stopped with a reaction terminator (100 mM sodium monochloroacetate, […] sodium acetate, […] acetic acid; pH 4.3; 1 ml) to determine the fluorescence intensity of aminomethylcoumarin isolated under fluorescence 460 nm in wavelength obtained by excitation at a wavelength of 370 nm using a fluorometer.

Another test concerns the target T2, Cathepsin B (Rattus norvegicus, UniProt P00787).
T2 construct: extracted from a rat liver and completely purified; from tissue; host or cells: rat liver
The experiment in a line: Determination of inhibition activity against cathepsin B (substrate Z-Arg-Arg-MCA). Conditions: cathepsin B purified from rat liver, pH 5.5, 30° C., 10 minutes. The class given is biochemical. As for the experimental part:
as §1
One that extracted from a rat liver and completely purified in accordance with the method described in Biochem. Biophys. Res. Commun., 83, 513-520 (1978) was used as cathepsin B, and as a substrate thereof, Z-Arg-Arg-MCA was used.
as §2

Structures can show the parent of a compound that is named as a salt.

T2 sequence (P00787 80-126 limits assumed): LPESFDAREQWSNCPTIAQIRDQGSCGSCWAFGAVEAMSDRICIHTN
T2 sequence (P00787 129-333 limits assumed): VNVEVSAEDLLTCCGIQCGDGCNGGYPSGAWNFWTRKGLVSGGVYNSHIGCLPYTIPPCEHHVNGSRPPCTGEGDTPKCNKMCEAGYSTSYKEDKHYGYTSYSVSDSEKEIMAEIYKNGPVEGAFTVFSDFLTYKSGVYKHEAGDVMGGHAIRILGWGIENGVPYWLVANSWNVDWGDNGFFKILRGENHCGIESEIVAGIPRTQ
T1 sequence (P07154 114-288 limits assumed): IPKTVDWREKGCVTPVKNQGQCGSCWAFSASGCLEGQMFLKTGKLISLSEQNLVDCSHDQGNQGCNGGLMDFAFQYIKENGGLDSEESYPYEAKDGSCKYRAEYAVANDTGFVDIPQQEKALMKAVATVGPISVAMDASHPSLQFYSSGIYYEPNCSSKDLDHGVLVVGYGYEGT
T1 sequence (P07154 291-334 limits assumed): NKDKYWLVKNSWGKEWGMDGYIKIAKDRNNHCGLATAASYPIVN

In the case of `CN(C)C(=O)[C@H](Cc1ccccc1)NC(=O)[C@H]1O[C@@H]1C(=O)Nc1cccc(CN)c1` [Compound 6, N-{L-3-trans-[3-(Aminomethyl)phenylcarbamoyl]oxirane-2-carbonyl}-L-phenylalanine dimethylamide hydrochloride], the IC50 is 200 nM against Cathepsin L and above 100000 nM against Cathepsin B.
The matching figures for `CN(C)C(=O)[C@H](Cc1ccccc1)NC(=O)[C@H]1O[C@@H]1C(=O)Nc1ccc(CN)cc1` [Compound 8, N-{L-3-trans-[4-(Aminomethyl)phenylcarbamoyl]oxirane-2-carbonyl}-L-phenylalanine dimethylamide hydrochloride]: below 100 nM and above 100000 nM.
The matching figures for `CN(C)C(=O)[C@H](Cc1ccccc1)NC(=O)[C@H]1O[C@@H]1C(=O)N1CCN(Cc2ccccc2)CC1` [Compound 9, N-[L-3-trans-(4-Benzylpiperazin-1-yl-carbonyl)oxirane-2-carbonyl]-L-phenylalanine dimethylamide]: 850 nM and above 100000 nM.
For `CN(C)C(=O)[C@H](Cc1ccccc1)NC(=O)[C@H]1O[C@@H]1C(=O)N(CCN)c1ccccc1` [Compound 11, N-{L-3-trans-[N-(2-Aminoethyl)-N-phenylcarbamoyl]oxirane-2-carbonyl}-L-phenylalanine dimethylamide hydrochloride], half-maximal inhibition against Cathepsin L (IC50) was put at 2400 nM. The “IC50 (M) Cathepsin B” value at Cathepsin B is “No inhibition”.
For `CC(C)(C)OC(=O)NCc1ccc(NC(=O)[C@H]2O[C@@H]2C(=O)N[C@@H](Cc2ccccc2)C(=O)NCCc2ccccc2)cc1` [Compound 12, N-{L-3-trans-[4-(t-Butoxycarbonylaminomethyl)phenylcarbamoyl]oxirane-2-carbonyl}-L-phenylalanine-2-phenylethylamide], the values for the IC50 at Cathepsin L and on Cathepsin B were 2.5 nM and above 10000 nM, respectively.
Turning to `CN(C)C(=O)[C@H](Cc1ccccc1)NC(=O)[C@H]1O[C@@H]1C(=O)N1CCN(C(=O)OC(C)(C)C)CC1` [Compound 15, N-[L-3-trans-(4-t-Butoxycarbonylpiperazin-1-yl-carbonyl)-oxirane-2-carbonyl]-L-phenylalanine dimethylamide], the IC50 on Cathepsin L is 220 nM; against Cathepsin B, above 100000 nM.
Take `CN(C)C(=O)[C@H](Cc1ccccc1)NC(=O)[C@H]1O[C@@H]1C(=O)NC1CCN(Cc2ccccc2)CC1` [Compound 18, N-{L-3-trans-[(1-Benzylpiperidin-4-yl)carbamoyl]oxirane-2-carbonyl}-L-phenylalanine dimethylamide hydrochloride]: the values for the IC50 at Cathepsin L and against Cathepsin B were 290 nM and above 100000 nM, respectively.
`CN(C)C(=O)[C@H](Cc1ccccc1)NC(=O)[C@H]1O[C@@H]1C(=O)NCc1ccc(N)cc1` [Compound 20, N-[L-3-trans-(4-Aminobenzylcarbamoyl)oxirane-2-carbonyl]-L-phenylalanine dimethylamide hydrochloride]: the IC50 was 670 nM against Cathepsin L and above 100000 nM against Cathepsin B.
The matching figures for `CN(C)C(=O)[C@H](Cc1ccccc1)NC(=O)[C@H]1O[C@@H]1C(=O)NCCNC(=O)OCc1ccccc1` [Compound 22, N-{L-3-trans-[2-(Benzyloxycarbonylamino)ethylcarbamoyl]oxirane-2-carbonyl}-L-phenylalanine dimethylamide]: 470 nM and above 100000 nM.
On to `CCc1ccc(NC(=O)[C@H]2O[C@@H]2C(=O)N[C@@H](Cc2ccccc2)C(=O)N(C)C)cc1` [Compound 29, N-[L-3-trans-(4-Ethylphenylcarbamoyl)oxirane-2-carbonyl]-L-phenylalanine dimethylamide], for which the IC50 is 2.2 nM on Cathepsin L and above 100000 nM at Cathepsin B.
`CN(C)C(=O)[C@H](Cc1ccccc1)NC(=O)[C@H]1O[C@@H]1C(=O)Nc1ccc(C(C)(C)C)cc1` [Compound 37, N-[L-3-trans-(4-t-Butylphenylcarbamoyl)oxirane-2-carbonyl]-L-phenylalanine dimethylamide]: the IC50 against Cathepsin L was 45 nM; against Cathepsin B, above 100000 nM.
On to `CN(C)C(=O)[C@H](Cc1ccccc1)NC(=O)[C@H]1O[C@@H]1C(=O)NCCc1csc(N)n1` [Compound 39, N-{L-3-trans-[2-(2-Aminothiazol-4-yl)ethylcarbamoyl]oxirane-2-carbonyl}-L-phenylalanine dimethylamide hydrochloride], for which the figures for the IC50 against Cathepsin L and at Cathepsin B were 350 nM and above 100000 nM, respectively.
For `Cc1cc(NC(=O)[C@H]2O[C@@H]2C(=O)N[C@@H](Cc2ccccc2)C(=O)N(C)C)no1` [Compound 41] the same measures were 33 nM and above 10000 nM.
For `CN(C)C(=O)[C@H](Cc1ccccc1)NC(=O)[C@H]1O[C@@H]1C(=O)Nc1ccc(CNC(=O)c2ccccc2)cc1` [Compound 44, N-{L-3-trans-[4-(Benzoylaminomethyl)phenylcarbamoyl]oxirane-2-carbonyl}-L-phenylalanine dimethylamide], the values for the IC50 against Cathepsin L and on Cathepsin B were 6 nM and 77000 nM, respectively.
For `CN(C)C(=O)[C@H](Cc1ccccc1)NC(=O)[C@H]1O[C@@H]1C(=O)NCCNc1ccc([N+](=O)[O-])cn1` [Compound 46, N-{L-3-trans-[2-(5-Nitropyridin-2-yl)aminoethylcarbamoyl]oxirane-2-carbonyl}-L-phenylalanine dimethylamide] the same measures were 34 nM and 85000 nM.
On to `CN(C)C(=O)[C@H](Cc1ccccc1)NC(=O)[C@H]1O[C@@H]1C(=O)Nc1ccc(Oc2ccccc2)cc1` [Compound 48, N-[L-3-trans-(4-Phenoxyphenylcarbamoyl)oxirane-2-carbonyl]-L-phenylalanine dimethylamide], for which the IC50 at Cathepsin L came to 60 nM; against Cathepsin B it was 45000 nM.
The matching figures for `CN(C)C(=O)[C@H](Cc1ccccc1)NC(=O)[C@H]1O[C@@H]1C(=O)NCCc1ccccn1` [Compound 56, N-{L-3-trans-[2-(Pyridin-2-yl)ethylcarbamoyl]oxirane-2-carbonyl}-L-phenylalanine dimethylamide]: 47 nM and above 10000 nM.
Take `CNC(=O)[C@H](Cc1ccccc1)NC(=O)[C@H]1O[C@@H]1C(=O)NCCc1ccccn1` [Compound 62, N-{L-3-trans-[2-(Pyridin-2-yl)ethylcarbamoyl]oxirane-2-carbonyl}-L-phenylalanine methylamide]: the IC50 against Cathepsin L is below 1 nM; on Cathepsin B, above 100000 nM.
Take `CN(C)C(=O)[C@H](Cc1ccccc1)NC(=O)[C@H]1O[C@@H]1C(=O)NCCc1ccc(N)cc1` [Compound 73, N-{L-3-trans-[2-(4-Aminophenyl)ethylcarbamoyl]oxirane-2-carbonyl}-L-phenylalanine dimethylamide]: the IC50 against Cathepsin L was 94 nM. In addition, the “IC50 (M) Cathepsin B” value at Cathepsin B is “No inhibition”.
Turning to `CN(C)C(=O)[C@H](Cc1ccccc1)NC(=O)[C@H]1O[C@@H]1C(=O)NCCc1ccc(N)cn1` [Compound 77, N-{L-3-trans-[2-(5-Aminopyridin-2-yl)ethylcarbamoyl]oxirane-2-carbonyl}-L-phenylalanine dimethylamide], the IC50 on Cathepsin L is 82 nM; against Cathepsin B it was above 10000 nM.
For `CC(=N)Nc1ccc(CCNC(=O)[C@H]2O[C@@H]2C(=O)N[C@@H](Cc2ccccc2)C(=O)N(C)C)cc1` [Compound 86, N-{L-3-trans-[2-(4-Acetoamidinophenyl)ethylcarbamoyl]oxirane-2-carbonyl}-L-phenylalanine dimethylamide hydrobromide] the same measures were 46 nM and above 10000 nM.
As for `CN(C)C(=O)[C@H](Cc1ccccc1)NC(=O)[C@H]1O[C@@H]1C(=O)N1CCN(c2nccc(N)n2)CC1` [Compound 90], the IC50 at Cathepsin L was 97 nM; on Cathepsin B, above 10000 nM.
